Assay results published in US8604054B2, “Triglyceride-lowering agent and hyperinsulinism-ameliorating agent” (Kowa Co., Ltd., priority 2006, dated 2013).

Columns and labels:
[1] = fructose-loaded rats, oral once a day for 21 days, pitavastatin 10 mg/kg, amlodipine 15 mg/kg; for plasma triglyceride level compared with the control group (FIG. 1): Dunnett's test, combination p<0.01
[2] = fructose-loaded rats, oral once a day for 21 days, pitavastatin 10 mg/kg, amlodipine 15 mg/kg; for plasma insulin level compared with the control group (FIG. 2): Dunnett's test, combination p<0.05
[3] = blood 22 hours after final administration

| Compound | plasma triglyceride level compared with the control group (FIG. 1) [1] | plasma insulin level compared with the control group (FIG. 2) [2] | relative plasma triglyceride level (based on the control group) [1, 3] | relative plasma insulin level (based on the control group) [2, 3] |
| --- | --- | --- | --- | --- |
| CCOC(=O)C1=C(COCCN)NC(C)=C(C(=O)OC)C1c1ccccc1Cl (stereo not drawn) [amlodipine, amlodipine besylate] | almost equivalent to those of the control group | not significantly changed as compared with the control group | – | – |
| O=C([O-])C[C@H](O)C[C@H](O)/C=C/c1c(C2CC2)nc2ccccc2c1-c1ccc(F)cc1.O=C([O-])C[C@H](O)C[C@H](O)/C=C/c1c(C2CC2)nc2ccccc2c1-c1ccc(F)cc1.[Ca+2] [pitavastatin, Pitavastatin calcium] | almost equivalent to those of the control group | not significantly changed as compared with the control group | 0.966 | 0.971 |
